Several values for one entry are separate records, joined by “and”; a condition that tells them apart may be missing. Equal entries are not always repeated. Inconclusive results and toxic doses are left out.
Tested on: L1210 leukemia ip in BDF1 mice, survival T/C
Assay: NCI In Vivo Anticancer Drug Screen. Data for tumor model L1210 Leukemia (intraperitoneal) in B6D2F1 (BDF1) mice
Conditions: endpoint: mean survival time, higher = longer survival
Procedure, shortened: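 Tumor cells were implanted, animals were treated, and survival was followed. The result divides the treated measurement by the vehicle-control measurement.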

Which results are given for `Nc1nc(=S)c2ncn(C3OC(CO)C(O)C3O)c2[nH]1` (centres undefined)?
T/C (dose: 0.09 mg/kg/injection, schedule: Q01DX Z (ip), vehicle: carboxymethylcellulose (CMC)): 109 % of control; T/C (dose: 0.18 mg/kg/injection, schedule: Q01DX Z (ip), vehicle: carboxymethylcellulose (CMC)): 124 % of control; T/C (dose: 0.25 mg/kg/injection, schedule: Q01DX015 (ip), vehicle: carboxymethylcellulose (CMC)): 111 % of control and 115 % of control; T/C (dose: 0.25 mg/kg/injection, schedule: Q01DX015 (ip), vehicle: other): 110 % of control; T/C (dose: 0.37 mg/kg/injection, schedule: Q01DX Z (ip), vehicle: carboxymethylcellulose (CMC)): 121 % of control; T/C (dose: 0.4 mg/kg/injection, schedule: Q01DX009 (sc), vehicle: carboxymethylcellulose (CMC)): 98 % of control; T/C (dose: 0.44 mg/kg/injection, schedule: Q01DX015 (ip), vehicle: carboxymethylcellulose (CMC)): 113 % of control; T/C (dose: 0.5 mg/kg/injection, schedule: Q01DX015 (ip), vehicle: carboxymethylcellulose (CMC)): 123 % of control; T/C (dose: 0.5 mg/kg/injection, schedule: Q01DX015 (ip), vehicle: other): 123 % of control; T/C (dose: 0.5 mg/kg/injection, schedule: Q01DX Z (ip), vehicle: carboxymethylcellulose (CMC)): 151 % of control; T/C (dose: 0.62 mg/kg/injection, schedule: Q01DX015 (oral), vehicle: carboxymethylcellulose (CMC)): 112 % of control; T/C (dose: 0.67 mg/kg/injection, schedule: Q01DX015 (ip), vehicle: carboxymethylcellulose (CMC)): 113 % of control; T/C (dose: 0.8 mg/kg/injection, schedule: Q01DX009 (oral), vehicle: carboxymethylcellulose (CMC)): 105 % of control; T/C (dose: 0.8 mg/kg/injection, schedule: Q01DX009 (sc), vehicle: carboxymethylcellulose (CMC)): 102 % of control; T/C (dose: 1.0 mg/kg/injection, schedule: Q01DX015 (ip), vehicle: other): 124 % of control; T/C (dose: 1.0 mg/kg/injection, schedule: Q01DX Z (ip), vehicle: carboxymethylcellulose (CMC)): 157 % of control; T/C (dose: 1.25 mg/kg/injection, schedule: Q01DX015 (oral), vehicle: carboxymethylcellulose (CMC)): 124 % of control; T/C (dose: 1.56 mg/kg/injection, schedule: Q01DX009 (ip), vehicle: saline): 152 % of control and 158 % of control; T/C (dose: 1.8 mg/kg/injection, schedule: Q## X032 (ip), vehicle: carboxymethylcellulose (CMC)): 120 % of control; T/C (dose: 2.16 mg/kg/injection, schedule: Q01DX Z (ip), vehicle: carboxymethylcellulose (CMC)): 152 % of control; T/C (dose: 2.16 mg/kg/injection, schedule: Q01DX Z (oral), vehicle: carboxymethylcellulose (CMC)): 114 % of control; T/C (dose: 2.7 mg/kg/injection, schedule: Q02DX008 (ip), vehicle: carboxymethylcellulose (CMC)): 152 % of control; T/C (dose: 3.0 mg/kg/injection, schedule: Q01DX009 (ip), vehicle: saline): 104 % of control; T/C (dose: 3.0 mg/kg/injection, schedule: Q01DX Z (ip), vehicle: carboxymethylcellulose (CMC)): 152 % of control; T/C (dose: 4.0 mg/kg/injection, schedule: Q01DX015 (ip), vehicle: carboxymethylcellulose (CMC)): 120 % of control; T/C (dose: 4.0 mg/kg/injection, schedule: Q01DX Z (ip), vehicle: carboxymethylcellulose (CMC)): 108 % of control; T/C (dose: 4.0 mg/kg/injection, schedule: Q02DX008 (ip), vehicle: carboxymethylcellulose (CMC)): 153 % of control; T/C (dose: 4.2 mg/kg/injection, schedule: Q## X032 (ip), vehicle: carboxymethylcellulose (CMC)): 123 % of control; T/C (dose: 4.6 mg/kg/injection, schedule: Q01DX009 (ip), vehicle: saline): 89 % of control; T/C (dose: 5.5 mg/kg/injection, schedule: Q## X003 (ip), vehicle: carboxymethylcellulose (CMC)): 156 % of control; T/C (dose: 5.8 mg/kg/injection, schedule: Q02DX008 (ip), vehicle: carboxymethylcellulose (CMC)): 156 % of control; T/C (dose: 6.0 mg/kg/injection, schedule: Q01DX Z (ip), vehicle: carboxymethylcellulose (CMC)): 122 % of control; T/C (dose: 6.0 mg/kg/injection, schedule: Q01DX Z (oral), vehicle: carboxymethylcellulose (CMC)): 150 % of control; T/C (dose: 6.25 mg/kg/injection, schedule: Q01DX009 (ip), vehicle: saline): 118 % of control; T/C (dose: 6.4 mg/kg/injection, schedule: Q## X032 (ip), vehicle: carboxymethylcellulose (CMC)): 154 % of control; T/C (dose: 7.0 mg/kg/injection, schedule: Q01DX Z (ip), vehicle: carboxymethylcellulose (CMC)): 116 % of control; T/C (dose: 8.0 mg/kg/injection, schedule: Q01DX Z (ip), vehicle: carboxymethylcellulose (CMC)): 110 % of control; T/C (dose: 8.8 mg/kg/injection, schedule: Q02DX008 (ip), vehicle: carboxymethylcellulose (CMC)): 150 % of control; T/C (dose: 9.0 mg/kg/injection, schedule: Q01DX Z (ip), vehicle: saline): 105 % of control and 108 % of control; T/C (dose: 10.0 mg/kg/injection, schedule: Q01DX Z (oral), vehicle: carboxymethylcellulose (CMC)): 119 % of control; T/C (dose: 10.0 mg/kg/injection, schedule: Q## X004 (ip), vehicle: carboxymethylcellulose (CMC)): 158 % of control; T/C (dose: 12.5 mg/kg/injection, schedule: Q01DX009 (ip), vehicle: saline): 108 % of control and 123 % of control; T/C (dose: 13.0 mg/kg/injection, schedule: Q01DX Z (ip), vehicle: saline): 108 % of control; T/C (dose: 13.0 mg/kg/injection, schedule: Q02DX008 (ip), vehicle: carboxymethylcellulose (CMC)): 119 % of control

From PubChem BioAssay AID248 (DTP/NCI, 2004)
